Assays:
human GHS receptor [1] = target: T1, human GHS receptor (Homo sapiens, UniProt Q92847); assay: h bind IC50 (binding assay, Table 1); conditions: for IC50: human receptor, Table 1
human GHS receptor [2] = target: T1, human GHS receptor; assay: Ghrelin IP1 agonist assay (IP1 HTRF); assay type: cell-based; design: expressed in transfected cells; host or cells: HEK293s; conditions: for Emax: 2 h, read-out: h IP1 ag %; for EC50: HEK293s cells stably expressing human GHS receptor, 2 hours at 37° C., read-out: h IP1 ag EC50
Protocol: In HEK293s cells stably expressing human GHS receptor (In-house), agonist activity was assessed by measuring intracellular myo-Inositol 1 phosphate (IP1) using the IP1 HTRF assay kit (Cisbio International).
Cells were harvested using accutase (Sigma), spun down at 1000 rpm for 5 minutes and resuspended in stimulation buffer (as above) containing 0.02% fatty acid free BSA at a density of 1.43E6cells/ml.
Agonist effect of the compound was expressed as % maximal effect of GHRP-6 (5 μM: Bachem). Sigmoidal curves were fitted by Origin 7.5 Client and EC50 values determined.

[3] = agonist effect as % maximal effect of GHRP-6 (5 μM)

T1 sequence (Q92847 whole entry): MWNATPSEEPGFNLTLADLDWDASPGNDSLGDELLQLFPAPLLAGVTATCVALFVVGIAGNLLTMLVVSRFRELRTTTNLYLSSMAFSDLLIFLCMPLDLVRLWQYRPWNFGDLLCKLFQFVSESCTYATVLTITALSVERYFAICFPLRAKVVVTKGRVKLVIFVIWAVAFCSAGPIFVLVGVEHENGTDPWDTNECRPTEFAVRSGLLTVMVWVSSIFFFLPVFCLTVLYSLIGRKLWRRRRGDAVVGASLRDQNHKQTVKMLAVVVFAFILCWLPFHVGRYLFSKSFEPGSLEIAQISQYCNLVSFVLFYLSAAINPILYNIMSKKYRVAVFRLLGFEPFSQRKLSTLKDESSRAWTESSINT

SMILES	IC50 (human GHS receptor [1]) [nM]	other results
O=C(NC(=O)c1ccccc1Cl)Nc1nc2ccc(S(=O)(=O)CCNCC3CCCO3)cc2s1 (centres unmarked) [Example 22, 2-Chloro-N-[[6-[2-(oxolan-2-ylmethylamino)ethylsulfonyl]benzothiazol-2-yl]carbamoyl]benzamide]	184	
CN(C)CC1CCN(c2ccc(Cl)c(C(=O)NC(=O)Nc3nc4ccc(S(C)(=O)=O)cc4s3)c2)C1 (centres unmarked) [Example 270, 2-Chloro-5-[3-(dimethylaminomethyl)pyrrolidin-1-yl]-N-[(6-methylsulfonyl-1,3-benzothiazol-2-yl)carbamoyl]benzamide]	762	
CC(C)NCCS(=O)(=O)c1ccc2nc(NC(=O)NC(=O)c3cc(-n4cccc4)ccc3I)sc2c1 [Example 84, 2-Iodo-N-(6-(2-(isopropylamino)ethylsulfonyl)benzothiazol-2-ylcarbamoyl)-5-(1H-pyrrol-1-yl)benzamide]	7.1	
CN(C)CCS(=O)(=O)c1ccc2nc(NC(=O)NC(=O)c3ccccc3Cl)sc2c1 [Example 3, 2-Chloro-N-[[6-(2-dimethylaminoethylsulfonyl)benzothiazol-2-yl]carbamoyl]benzamide]	1120	
O=C(NC(=O)c1ccccc1Cl)Nc1nc2ccc(S(=O)(=O)CCCN3CCC(O)C3)cc2s1 (centres unmarked) [Example 160, 2-Chloro-N-[[6-[3-(3-hydroxypyrrolidin-1-yl)propylsulfonyl]benzothiazol-2-yl]carbamoyl]benzamide]	29.6	
CC1(NCCS(=O)(=O)c2ccc3nc(NC(=O)NC(=O)c4ccccc4Cl)sc3c2)CC1 [Example 39, 2-Chloro-N-[[6-[2-[(1-methylcyclopropyl)amino]ethylsulfonyl]benzothiazol-2-yl]carbamoyl]benzamide]	179	
NC(=O)COCCS(=O)(=O)c1ccc2nc(NC(=O)NC(=O)c3ccccc3Cl)sc2c1 [Example 120, N-[[6-[2-(Carbamoylmethoxy)ethylsulfonyl]benzothiazol-2-yl]carbamoyl]-2-chloro-benzamide]		Emax (human GHS receptor [2]; [3]): 29.5%; EC50 (human GHS receptor [2]): 211 nM
CN1CCC[C@@H]1CS(=O)(=O)c1ccc2nc(NC(=O)NC(=O)c3ccccc3Cl)sc2c1 [Example 169, 2-Chloro-N-[[6-[[(2R)-1-methylpyrrolidin-2-yl]methylsulfonyl]benzothiazol-2-yl]carbamoyl]benzamide]	151	
CCN(CC)CCS(=O)(=O)c1ccc2nc(NC(=O)NC(=O)c3ccccc3Cl)sc2c1 [Example 7, 2-Chloro-N-[[6-(2-diethylaminoethylsulfonyl)benzothiazol-2-yl]carbamoyl]benzamide]	670	
CC(NCCS(=O)(=O)c1ccc2nc(NC(=O)NC(=O)c3ccccc3Cl)sc2c1)c1ccccc1 (centres unmarked) [Example 20, 2-Chloro-N-[[6-[2-(1-phenylethylamino)ethylsulfonyl]benzothiazol-2-yl]carbamoyl]benzamide]	184	
CC(C)NCCCS(=O)(=O)c1ccc2nc(NC(=O)NC(=O)c3ccccc3Cl)sc2c1 [Example 145, 2-Chloro-N-[[6-[3-(propan-2-ylamino)propylsulfonyl]benzothiazol-2-yl]carbamoyl]benzamide]	59.8	
CCN1CCN(CCS(=O)(=O)c2ccc3nc(NC(=O)NC(=O)c4ccccc4Cl)sc3c2)CC1 [Example 29, 2-Chloro-N-[[6-[2-(4-ethylpiperazin-1-yl)ethylsulfonyl]benzothiazol-2-yl]carbamoyl]benzamide]	60.9	
CS(=O)(=O)c1ccc2nc(NC(=O)NC(=O)c3ccccc3-c3ccccc3F)sc2c1 [Example 125, 2-(2-Fluorophenyl)-N-[(6-methylsulfonylbenzothiazol-2-yl)carbamoyl]benzamide]		Emax (human GHS receptor [2]; [3]): 31.8%; EC50 (human GHS receptor [2]): 252 nM
CN(C)C1CC(Oc2ccc(Cl)c(C(=O)NC(=O)Nc3nc4ccc(S(C)(=O)=O)cc4s3)c2)C1 (centres unmarked) [Example 269, 2-Chloro-5-(3-dimethylaminocyclobutoxy)-N-[(6-methylsulfonyl-1,3-benzothiazol-2-yl)carbamoyl]benzamide]	8730	
O=C(NC(=O)c1ccccc1Cl)Nc1nc2ccc(S(=O)(=O)CCCN3CCC3)cc2s1 [Example 147, N-[[6-[3-(Azetidin-1-yl)propylsulfonyl]benzothiazol-2-yl]carbamoyl]-2-chloro-benzamide]	78.8	
CC(C)N1CC(S(=O)(=O)c2ccc3nc(NC(=O)NC(=O)c4ccccc4Cl)sc3c2)C1 [Example 186, 2-Chloro-N-[[6-(1-propan-2-ylazetidin-3-yl)sulfonylbenzothiazol-2-yl]carbamoyl]benzamide]	34.1	
CC(C)NCCS(=O)(=O)c1ccc2nc(NC(=O)NC(=O)c3cc(-n4cccc4)ccc3Cl)sc2c1 [Example 82, 2-Chloro-N-[[6-[2-(propan-2-ylamino)ethylsulfonyl]benzothiazol-2-yl]carbamoyl]-5-pyrrol-1-yl-benzamide]	1.6	

SMILES	IC50 (human GHS receptor [1]) [nM]	other results
O=C(NC(=O)c1ccccc1Cl)Nc1nc2ccc(S(=O)(=O)C3CCN(CC4CC4)C3)cc2s1 (centres unmarked) [Example 144, 2-Chloro-N-[[6-[1-(cyclopropylmethyl)pyrrolidin-3-yl]sulfonylbenzothiazol-2-yl]carbamoyl]benzamide]	201	
CS(=O)(=O)c1ccc2nc(NC(=O)NC(=O)c3c(F)cccc3F)sc2c1 [Example 112, 2,6-Difluoro-N-[(6-methylsulfonylbenzothiazol-2-yl)carbamoyl]benzamide]		Emax (human GHS receptor [2]; [3]): 38.4%; EC50 (human GHS receptor [2]): 142 nM
CC(C)N1CCC(S(=O)(=O)c2ccc3nc(NC(=O)NC(=O)c4ccccc4Cl)sc3c2)CC1 [Example 174, 2-Chloro-N-[[6-[(1-propan-2-yl-4-piperidyl)sulfonyl]benzothiazol-2-yl]carbamoyl]benzamide]	139	
COCCN(C)CCS(=O)(=O)c1ccc2nc(NC(=O)NC(=O)c3ccccc3Cl)sc2c1 [Example 9, 2-Chloro-N-[[6-[2-(2-methoxyethyl-methyl-amino)ethylsulfonyl]benzothiazol-2-yl]carbamoyl]benzamide]	247	
COc1cc(Cl)c(C(=O)NC(=O)Nc2nc3ccc(S(=O)(=O)C4CCNCC4)cc3s2)cc1-n1cccn1 [Example 263, 2-chloro-4-methoxy-N-(6-(piperidin-4-ylsulfonyl)benzo [d]thiazol-2-ylcarbamoyl) 5-(1H-pyrazol-1-yl)benzamide]	1.12	
CC(C)Oc1cc(Cl)c(C(=O)NC(=O)Nc2nc3ccc(S(=O)(=O)C4CCN(C)CC4)cc3s2)cc1-n1cccn1 [Example 267, 2-chloro-4-isopropoxy-N-(6-(1-methylpiperidin-4-ylsulfonyl)benzo [d]thiazol-2-ylcarbamoyl) 5-(1H-pyrazol-1-yl)benzamide]	1.5	
O=C(NC(=O)c1ccccc1Cl)Nc1nc2ccc(S(=O)(=O)CCNCCF)cc2s1 [Example 31, 2-Chloro-N-[[6-[2-(2-fluoroethylamino)ethylsulfonyl]benzothiazol-2-yl]carbamoyl]benzamide]	54.6	
O=C(NC(=O)c1ccccc1Cl)Nc1nc2ccc(S(=O)(=O)C3CCNCC3)cc2s1 [Example 176, 2-Chloro-N-[[6-(4-piperidylsulfonyl)benzothiazol-2-yl]carbamoyl]benzamide]	13.2	
CN1CCC(S(=O)(=O)c2ccc3nc(NC(=O)NC(=O)c4ccccc4Cl)sc3c2)C1 (centres unmarked) [Example 167, 2-Chloro-N-[[6-(1-methylpyrroldin-3-yl)sulfonylbenzothazol-2-yl]carbamoyl]benzamide]	109	
CCS(=O)(=O)c1ccccc1C(=O)NC(=O)Nc1nc2ccc(S(C)(=O)=O)cc2s1 [Example 135, 2-Ethyl sulfonyl-N-[(6-methylsulfonylbenzothiazol-2-yl)carbamoyl]benzamide]		h IP1 ag % (human GHS receptor [2]; [3]): 18.23%
COCCOCCS(=O)(=O)c1ccc2nc(NC(=O)NC(=O)c3ccccc3Cl)sc2c1 [Example 42, 2-Chloro-N-[[6-[2-(2-methoxyethoxy)ethylsulfonyl]benzothiazol-2-yl]carbamoyl]benzamide]	177	
CCN1CCC(S(=O)(=O)c2ccc3nc(NC(=O)NC(=O)c4ccccc4Cl)sc3c2)C1 (centres unmarked) [Example 163, 2-Chloro-N-[[6-(1-ethylpyrrolidin-3-yl)sulfonylbenzothiazol-2-yl]carbamoyl]benzamide]	613	
COCCS(=O)(=O)c1ccc2nc(NC(=O)NC(=O)c3ccccc3Cl)sc2c1 [Example 40, 2-Chloro-N-[[6-(2-methoxyethylsulfonyl)benzothiazol-2-yl]carbamoyl]benzamide]	1820	
C=CS(=O)(=O)c1ccc2nc(NC(=O)NC(=O)c3ccccc3Cl)sc2c1 [Example 129, 2-Chloro-N-[(6-ethenylsulfonylbenzothiazol-2-yl)carbamoyl]benzamide]	219	
COCCNCCCS(=O)(=O)c1ccc2nc(NC(=O)NC(=O)c3cc(-n4cccc4)ccc3Cl)sc2c1 [Example 76, 2-Chloro-N-[[6-[3-(2-methoxyethylamino)propylsulfonyl]benzothiazol-2-yl]carbamoyl]-5-pyrrol-1-yl-benzamide]	11.4	
COc1cc(Cl)c(C(=O)NC(=O)Nc2nc3ccc(S(C)(=O)=O)cc3s2)cc1OC [2-chloro-4,5-dimethoxy-N-[(6-methylsulfonyl-1,3-benzothiazol-2-yl)carbamoyl]benzamide]		IC50 in the binding assay (human GHS receptor [1]): did not have IC50s in the range of about 0.001 μM to about 10 μM
CS(=O)(=O)c1ccc2nc(NC(=O)NC(=O)c3ccccc3-c3ccc(F)cc3)sc2c1 [Example 126, 2-(4-Fluorophenyl)-N-[(6-methylsulfonylbenzothiazol-2-yl)carbamoyl]benzamide]		Emax (human GHS receptor [2]; [3]): 38.4%; EC50 (human GHS receptor [2]): 1030 nM

— patent publication US20120115845A1, “THERAPEUTIC AGENTS” (priority 2007, published 2012)
